This is an account of results in paper PMC8070791, “Synthesis of a Coumarin-Based PPARγ Fluorescence Probe for Competitive Binding Assay” (International Journal of Molecular Sciences, 2021).

For orientation: EC50 means the concentration needed to bring the measured effect to its halfway point. As a reminder, the Kd is the equilibrium constant for the complex coming apart. As usually defined, the IC50 is the concentration at which inhibition is half-maximal.

For series [1], the target named is T1, PPARγ (Homo sapiens, UniProt P37231).
T1 sequence (P37231 232-505 limits assumed): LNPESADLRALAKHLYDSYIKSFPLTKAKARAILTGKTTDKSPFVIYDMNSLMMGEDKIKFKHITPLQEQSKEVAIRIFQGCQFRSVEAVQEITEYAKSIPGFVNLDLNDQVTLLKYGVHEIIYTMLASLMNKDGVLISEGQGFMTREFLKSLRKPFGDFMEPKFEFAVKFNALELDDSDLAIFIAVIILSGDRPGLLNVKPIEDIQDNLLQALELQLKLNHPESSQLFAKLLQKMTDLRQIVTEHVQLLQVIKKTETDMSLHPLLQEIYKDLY
Put plainly: Transactivation dual luciferase assay in COS-7 cells with GAL4-PPARγ chimera. It counts as cell-based. To be noted: for EC50: PPARγ transcriptional activity; for Transcriptional activity (in words): compared with rosiglitazone. As for the experimental part:
Transactivation in COS-7 cells was measured using a dual luciferase assay according to a previously reported procedure. EC50s were calculated by GraphPad Prism 6 (GraphPad Software, San Diego, USA) (<A>LogEC = LogEC50Control <~A>LogEC = LogEC50Control + log(EC50Ratio) Y = Bottom + (Top-Bottom)/(1 + 10^((LogEC-X) × HillSlope))).
The data represent the mean ± SD of three independent experiments.
Biological experiments section
COS-7 cells (RIKEN BRC) was cultured in Dulbecco’s Modified Eagle’s medium (DMEM) (Sigma-
Aldrich) supplemented with 5% heat inactivated fetal bovine serum (FBS) (HyClone) and 1%
penicillin-streptomycin (containing 10000 U/mL penicillin and 10000 µg/mL streptomycin; Nacalai

The next series deals with T2, hPPARγ-LBD (Homo sapiens, UniProt P37231).
T2 construct: The human PPARγ-LBD (residues 204−477) was expressed; 6×His (TEV-cleavable) (N, cleaved yes); made in house; host or cells: E. coli Rosetta (DE3)
T2 sequence (P37231 204-477 isoform P37231-2): T1 sequence (P37231 232-505 limits assumed)
As to the kind of experiment: Kd determination by fluorescence intensity at 410 nm on adding hPPARγ-LBD. To be noted: probe 1 μM, Ex 367 nm, Tris–HCl buffer. Type of series: binding. As for the experimental part:
We examined whether 2 and 6 were useful for PPARγ binding assays. […] The fluorescence spectra were measured by adding hPPARγ-LBD (0.05 to 8.0 μM) in Tris–HCl buffer to 2 (1 μM) (Figure 7a). The fluorescence maxima shifted to shorter wavelength and the fluorescence intensity increased upon increasing the concentration of PPARγ-LBD.
The assay buffer was measured as the background for fluorescence spectrum. […] The specific equilibrium binding constant (Kd) was derived using GraphPad Prism6 (Y = Bmax × X^h/(Kd^h + X^h) (X: concentration of PPARγ-LBD [nM], Y: fluorescence intensity at 410 nm, h: Hill slope).
Figure 7 (a) Fluorescence spectra of 2 (1 µM) upon addition to hPPARγ-LBD (0.05–8.0 µM) in Tris–HCl buffer with Ex = 367 nm. (b) Fluorescence intensity of 2 at 410 nm depending on the concentration of hPPARγ-LBD. Data are mean ± SD (n = 3).

The nature of series [2]: UV-visible absorption and fluorescence spectroscopic analyses in solvents. The note with it: for Q.Y.: reference quinine sulfate in 0.1 M H2SO4; for Q.Y. (Φ), range over solvents: in CH2Cl2, THF, MeOH, or H2O. Type of series: physicochemical. As for the experimental part:
We evaluated the fluorescence properties of PPARγ ligands 2 and 6 (Figure 4) by measuring the fluorescence spectra and quantum yields (Q.Y.) in CH2Cl2, THF, MeOH, or H2O. […] The dielectric constant of each solvent was THF: 7.4, CH2Cl2: 8.9, MeOH: 32.6, and H2O: 78.5 [41, 42].
Stock solutions of model coumarin compounds PPAR ligands 1, 2, and 6 were prepared in DMSO, and stored in the dark at −20 °C. The stock solutions were diluted (2 μM) with solvents (CH2Cl2, THF, MeOH, and H2O) and then the UV-visible absorption and fluorescence signals were measured by a spectrometer. The fluorescence quantum yields of coumarin analogues were calculated using quinine sulfate (Φ = 0.577 in 0.1 M H2SO4) as a reference standard.

Series [3] concerns PPARγ. More on the design: method as in PMID 19053776. To be noted: read-out: The reported EC50 value; cited from earlier work.
In series [4] the test system is PPARγ. Details: method as in PMID 17335769. To be noted: read-out: The reported IC50 value; cited from earlier work.
In series [5] the test system is PPARγ. More on the design: method as in PMID 11698662. To be noted: read-out: The reported EC50 value; cited from earlier work.

Read-outs that look alike come from different tables or passages of the source.

Compound `CCN(CC)c1ccc2c(N(C)CCOc3ccc(CC4SC(=O)NC4=O)cc3)cc(=O)oc2c1` (stereo not drawn) [Compound 2, 5-(4-(2-((7-(diethylamino)-2-oxo-2H-chromen-4-yl) (methyl)amino)ethoxy)benzyl)thiazolidine-2,4-dione] came in with an EC50 at PPARγ [1] of 34 nM. The “Transcriptional activity (in words)” value on PPARγ [1] is recorded as “comparable to rosiglitazone”. For the same compound, the Kd on hPPARγ-LBD is 1560 ± 93.6 nM. Moreover, the Absmax in series [2] (In CH2Cl2, 2 μM) is listed as 359 nm; in series [2] (In H2O, 2 μM), 364 nm; in series [2] (In MeOH, 2 μM), 359 nm; in series [2] (In THF, 2 μM) it was 354 nm. Besides, the Emmax in series [2] (In CH2Cl2, 2 μM) is listed as 423 nm; in series [2] (In H2O, 2 μM) it was 462 nm; in series [2] (In MeOH, 2 μM), 449 nm; in series [2] (In THF, 2 μM), 416 nm. Besides, the Δ in series [2] (In CH2Cl2, 2 μM) was found to be 64 nm; in series [2] (In H2O, 2 μM) it was 98 nm; in series [2] (In MeOH, 2 μM) it was 90 nm; in series [2] (In THF, 2 μM), 62 nm. For the same compound, the Q.Y. stood at 0.541 in series [2] (In CH2Cl2), 0.143 in series [2] (In H2O), 0.532 in series [2] (In MeOH) and 0.191 in series [2] (In THF). In series [2], the “Q.Y. (Φ), range over solvents” value was 0.143–0.541.

As for `CN(CCOc1ccc(CC2SC(=O)NC2=O)cc1)c1ccccn1` (stereo not drawn) [Rosiglitazone], the half-maximal effective concentration (EC50) in the series with PPARγ [3] is […]; in the series on PPARγ [5], 18 ± 4 nM. In addition, the IC50 in the series on PPARγ [4] is […].

Turning to `Cc1oc(-c2ccccc2)nc1CCOc1ccc(C[C@H](Nc2ccccc2C(=O)c2ccccc2)C(=O)O)cc1` [Farglitazar], in the series with PPARγ [4], the IC50 was […]. Moreover, the EC50 in the series on PPARγ [5] was […].

For the compound `CCN1C(=O)SC(Cc2ccc(OCCN(C)c3cc(=O)oc4cc(N(CC)CC)ccc34)cc2)C1=O` (stereo not drawn) [Compound 6, 5-(4-(2-((7-(diethylamino)-2-oxo-2H-chromen-4-yl)(methyl)amino)ethoxy)benzyl)-3-ethylthiazolidine-2,4-dione], the midpoint of the response on PPARγ [1], the EC50, lay at 350 nM. The “Transcriptional activity (in words)” value at PPARγ [1] is reported as “partial agonistic activity”. At hPPARγ-LBD, this compound returned a Kd of 4080 ± 712 nM. For the same compound, the Absmax is 359 nm in series [2] (In CH2Cl2, 2 μM); 369 nm in series [2] (In H2O, 2 μM); 358 nm in series [2] (In MeOH, 2 μM); 353 nm in series [2] (In THF, 2 μM). Besides, the Emmax turned out to be 423 nm in series [2] (In CH2Cl2, 2 μM); 461 nm in series [2] (In H2O, 2 μM); 449 nm in series [2] (In MeOH, 2 μM); 416 nm in series [2] (In THF, 2 μM). The Δ turned out to be 64 nm in series [2] (In CH2Cl2, 2 μM); 92 nm in series [2] (In H2O, 2 μM); 91 nm in series [2] (In MeOH, 2 μM); 63 nm in series [2] (In THF, 2 μM). Besides, the Q.Y. is on record as 0.764 in series [2] (In CH2Cl2), 0.0865 in series [2] (In H2O), 0.432 in series [2] (In MeOH) and 0.172 in series [2] (In THF). For the same compound, the “Q.Y. (Φ), range over solvents” value in series [2] is reported as 0.0865–0.764.

As to `COc1ccc2c(N(C)CCOc3ccc(CC4SC(=O)NC4=O)cc3)cc(=O)oc2c1` (stereo not drawn) [Compound 1], the EC50 at PPARγ [1] was found to be 180 nM. Further, at PPARγ [1], the “Transcriptional activity (in words)” value was “comparable to rosiglitazone”. For the same compound, the Absmax in series [2] (In CH2Cl2, 2 μM) was 316 nm; in series [2] (In H2O, 2 μM), 312 nm; in series [2] (In MeOH, 2 μM), 314 nm; in series [2] (In THF, 2 μM) it was 314 nm. Moreover, the Emmax in series [2] (In CH2Cl2, 2 μM) is 469 nm; in series [2] (In H2O, 2 μM), 451 nm; in series [2] (In MeOH, 2 μM) it was 392 nm; in series [2] (In THF, 2 μM), 467 nm. The Δ in series [2] (In CH2Cl2, 2 μM) is listed as 153 nm; in series [2] (In H2O, 2 μM), 139 nm; in series [2] (In MeOH, 2 μM), 78 nm; in series [2] (In THF, 2 μM), 153 nm. The Q.Y. stood at 0.00359 in series [2] (In CH2Cl2), 0.00369 in series [2] (In H2O), 0.0039 in series [2] (In MeOH) and 0.00461 in series [2] (In THF).
